Each block holds one compound with its values, some of them ahead of it.
Key:
[1] = Cation binding titration, sodium (fluorescence and 19F NMR titrations); details: for Cation Binding Constant (log k), Na+: 37° C.
Protocol: (§1) Fluorescence titrations: Ionic titrations of chelator fluorescence were performed on a Perkin Elmer 44E spectrofluorometer at a chelator concentration of 10 μM in 100 mM tris/acetic acid buffer at 37° C. Fluorescence emission from all of the chelators was monitored at a constant wavelength between 370 and 390 nm. The excitation spectra from 210 to 350 nm were recorded in the ratio mode and the proportion of M^n+ chelator complex was calculated from the fluorescence intensities at the most sensitive excitation wavelengths. The binding constants were estimated graphically from plots of log (bound/free) chelator against log free [M^n+ ]. (Slopes were 1.00±<0.05).
(§2) NMR titrations: Nmr spectra were recorded on Bruker WH 200 or Am 400 spectrometers at 188 or 376 MHz respectively at chelator concentrations between 5 and 10 mM in the same buffer as for fluorescence titrations but containing 20% D2 O at 37° C. The spectra were obtained with an acquisition time of 1.0 sec. and a 90° pulse and were processed with resolution enhancement (-0.5 of the observed line width) and appropriate gaussian sensitivity enhancement. The proportion of M^n+ -chelator complex was calculated from the integrals of the resolved free and bound chelator ^19 F resonances, or from the chemical shift of complexes in fast exchange. The apparent affinities were determined graphically as for the fluorescence data, but using a two step iteration from the affinity derived from the fluorescence data when the dissociation constant was close to the chelator concentration in the nmr titrations.

[2] = Cation induced 19F NMR chemical shift, sodium; format: binding; set-up: key: fast exchange; slow exchange; details: 37° C.
Protocol: as §2

[3] = Cation induced 19F NMR chemical shift, potassium; format: binding; set-up: key: fast exchange; slow exchange; details: 37° C.
Protocol: as §2

[4] = Cation binding titration, potassium (fluorescence and 19F NMR titrations); details: 37° C.; from NMR
Protocol: as §1
as §2, with “The spectra were obtained with an acquisition time of 1.0 sec. and a 90° pulse and were processed with resolution enhancement (-0.5 of the observed line width) and appropriate gaussian sensitivity enhancement.” left out

[5] = format: binding; details: tris/acetic acid buffer
Protocol: as §1

[6] = Selectivity for sodium ions over potassium (and other) ions; format: binding
[7] = system: cellular function; format: cell-based
Protocol: (§3) Lymphocytes (1 ml packed cells) were prepared from pig mesenteric lymphnodes by standard procedure in RPM1 medium. The cells suspended in RPM1 (200 ml) were treated with the tetra-acetoxymethyl ester of Example 3 (4.5 mg) in DMSO (100 μl) and incubated at 37° C. for 1 hour. The cells were isolated by centrifugation and suspended in RPM1 (20 ml) in the spectrometer probe, with continuous dialysis against oxygenated medium and the data collected. The signal appeared after 3 hours and was collected for a further 3 hours.

[8] = system: Lymphocytes; assay: Intracellular sodium by 19F NMR in pig mesenteric lymph node lymphocytes; format: cell-based
Protocol: as §3

Cation Binding Constant (log k), Na+ ([1]; from NMR): 6
Cation Binding Constant (log k), K+ [4]: 2.3
SMILES: O=C(O)CN(CC(=O)O)c1ccc2c(c1)OCCN1CCOCCN(CCO2)c2ccc(F)cc2OCCOc2cc(F)ccc21 [Compound 7a]
Exchange (fast/slow), Na+ [2]: s
Exchange (fast/slow), K+ [3]: f

SMILES: O=C(O)CN(CC(=O)O)c1cccc(N2CCN3CCOc4ccc(N(CC(=O)O)CC(=O)O)cc4OCCN(CC2)c2ccc(F)cc2OCCOc2cc(F)ccc23)c1 [Compound 7d]
Cation Binding Constant (log k), Na+ ([1]; from NMR and from fluorescence at 370 nm): 1.6
Exchange (fast/slow), Na+ [2]: f
Cation Binding Constant (log k), H+ [5]: 7.0

SMILES: CC(=O)c1cc2c(cc1N(CC(=O)O)CC(=O)O)OCCN1CCN(c3cccc(N(CC(=O)O)CC(=O)O)c3)CCN(CCO2)c2ccc(F)cc2OCCOc2cc(F)ccc21 [Compound 8d]
Cation Binding Constant (log k), Na+ ([1]; from NMR): 1.3
Exchange (fast/slow), Na+ [2]: f

SMILES: CC(=O)OCOC(=O)CN(CC(=O)OCOC(C)=O)c1cccc(N2CCN3CCOc4cc(C(C)=O)c(N(CC(=O)OCOC(C)=O)CC(=O)OCOC(C)=O)cc4OCCN(CC2)c2ccc(F)cc2OCCOc2cc(F)ccc23)c1 [Example 3]
Kd ([1]; read-out: dissociation constant of the sodium complex): 40 mM
selectivity for sodium ions (in words) [6]: high selectivity for sodium over all other ions and in particular over potassium
adverse effect on cellular function [7]: has not shown any adverse effect on cellular function
19F chemical shift downfield from the standard ([8]; 37° C., standard 1,2-bis (2-amino-5-fluorophenoxy) ethane-N,N,N',N'-tetracetic acid): 5.99 ppm
intracellular sodium ion concentration indicated ([8]; from 19F chemical shift): about 13 mM

Reference: patent US4843158A, “[2,2,1]Cryptand compounds that selectively bind sodium” (priority 1985, dated 1989)
